From PubChem BioAssay (NCI)
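Step 1: Grow cells in 96-well plates. Step 2: Expose to compound for 48 hours at 5 concentrations. Step 3: Interpolate endpoints linearly; if unreached, use highest concentration. The concentration for full growth arrest is given as TGI.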

Experiments:
Assay in all cases: growth of human tumour cells (NCI), 48 h
786-0 renal = tested on: 786-0 renal
A498 renal = tested on: A498 renal
ACHN renal = tested on: ACHN renal
HS 578T breast = tested on: HS 578T breast
K-562 leukemia = tested on: K-562 leukemia
M14 melanoma = tested on: M14 melanoma
NCI-H460 lung = tested on: NCI-H460 lung
OVCAR-4 ovarian = tested on: OVCAR-4 ovarian
OVCAR-8 ovarian = tested on: OVCAR-8 ovarian
PC-3 prostate = tested on: PC-3 prostate
RPMI-8226 leukemia = tested on: RPMI-8226 leukemia
SF-268 CNS = tested on: SF-268 CNS
SNB-19 CNS = tested on: SNB-19 CNS
SW-620 colon = tested on: SW-620 colon
T-47D breast = tested on: T-47D breast
TK-10 renal = tested on: TK-10 renal
U251 CNS = tested on: U251 CNS
DU-145 prostate = tested on: DU-145 prostate
SF-295 CNS = tested on: SF-295 CNS

Compound	TGI (786-0 renal) [µM]	TGI (A498 renal) [µM]	TGI (ACHN renal) [µM]	TGI (HS 578T breast) [µM]	TGI (K-562 leukemia) [µM]	TGI (M14 melanoma) [µM]	TGI (NCI-H460 lung) [µM]	TGI (OVCAR-4 ovarian) [µM]	TGI (OVCAR-8 ovarian) [µM]	TGI (PC-3 prostate) [µM]	TGI (RPMI-8226 leukemia) [µM]	TGI (SF-268 CNS) [µM]	TGI (SNB-19 CNS) [µM]	TGI (SW-620 colon) [µM]	TGI (T-47D breast) [µM]	TGI (TK-10 renal) [µM]	TGI (U251 CNS) [µM]	TGI (DU-145 prostate) [µM]	TGI (SF-295 CNS) [µM]
COc1cc(/C=C/C2=NN(c3cccc(S(=O)(=O)O)c3)C3(C2)C(Cl)C(=O)N3c2nc3ccccc3s2)ccc1O (stereo unspecified)	32.2	> 100	30.9	> 100	61.9	> 100	> 100	30.4	40.8	> 100	37.6	50.5	> 100	48	26.4	28.2	40.7		
O=C(CC(C(=O)c1ccsc1)c1ccccc1)c1cccs1 (stereo unspecified)	> 100	> 100	> 100	> 100	> 100	> 100	> 100	> 100	> 100		> 100	> 100		> 100	45.3	> 100	> 100	> 100	> 100
CC(C)=CCC/C(C)=C/Cc1c(O)ccc2c1[nH]c1cc(O)c(C)cc12	> 25		> 25		> 25	> 25	> 25	12.1	> 25		> 25	> 25	> 25	> 25		> 25	> 25		
CN1CN(c2ccccc2)C2(CCN(CCCC(=O)c3cccs3)CC2)C1=O	> 100		> 100		> 100	> 100			> 100	> 100	> 100	> 100	> 100	> 100	> 100	87.6	> 100	> 100	85.6
CC(=O)Nc1ccc(N2C(=O)/C(=C\c3cccc(Oc4ccccc4)c3)SC2c2ccccc2)cc1 (stereo unspecified)	> 100	> 100	> 100	66.3	> 100	> 100	> 100	> 100	34.8		58.3	> 100	48.5	> 100	> 100	> 100	30.4	> 100	> 100
CCOC(=O)CN1CCSC1=NC#N		> 100			> 100		> 31.6	> 100	> 100		> 100	> 100	> 100	> 100			> 100		> 42.7
CN=C(N)N/N=C(\C)c1ccc2oc3ccc(/C(C)=N/NC(N)=NC)cc3c2c1	> 100	> 31.3	> 48.8		15	> 100	> 100	> 100	> 100	10.7	6.41		> 100	5.33		> 100		> 100	> 100
CC1CC/C(=C\c2ccc(N(C)C)cc2)C(=O)/C1=C/c1ccc(N(C)C)cc1 (stereo unspecified)	> 100	> 100	> 100		> 100	> 100		> 100	> 100	> 100				> 100	> 100	> 100	> 100		> 100
COc1ccc(NCC(=O)Nn2c(C)nc3ccc(S(=O)(=O)Nc4ccc(OC)cc4)cc3c2=O)cc1	> 100		> 100	> 100	> 100	> 100	> 100	> 100	> 100	> 100	> 100	> 100	> 100	> 100		> 100	> 100	> 100	> 100
CC(Oc1ccc(OCC2CCCCC2)cc1)C(=O)N(CCO)CCO (stereo unspecified)	> 100	> 100	> 100		> 100	> 100	> 100	> 100	> 100			> 100	> 100			> 100	> 100		> 100
C=CC12CN(C)C3C4COC(CC41)C1(C(=O)Nc4ccccc41)C32 (stereo unspecified)		> 200			> 200		> 200	> 200	> 200		> 200	> 200	> 200	> 200			> 200		> 200
CC(C)N1CSC(=S)N(Cc2ccccc2)C1		> 10	> 10	> 10	> 10		> 10	> 10	> 10	> 10	> 10	> 10	> 10	> 10	> 10	> 10	> 10		> 10
